Data on two compounds can be found in patent US20230146593A1, “METHOD FOR TREATMENT AND PROPHYLAXIS OF CRS IN PATIENTS COMPRISING A COMBINATION OF BISPECIFIC ANTIBODIES BINDING TO CDS X CANCER CELL AND TNF ALPHA OR IL-6 INHIBITOR” (AMGEN INC., priority 2020, published 2023).

The test system of data set [1] is Adult patients with R/R AML (CRS). As to conditions: human, in vivo.
Data set [2] deals with VCAM-1 on endothelial cells (HUVEC). In words: Blinatumumab VCAM assay: VCAM-1 on CD31+ HUVEC in co-culture with T cells and NALM-6 cells (flow cytometry). The format is cell-based, human. As to conditions: co-culture of HUVEC, isolated T cells and NALM-6 target cells. As to the method:
FIG. 7. VCAM-1 Expression on HUVEC in AMG 103 Co-culture Assays: VCAM-1 expression by flow cytometry. […] expression levels are expressed as Median Fluorescence Intensity (MFI). VCAM-1 expressing HUVEC are expressed as percentage of CD31+ HUVEC. Error bars indicate the standard error of the mean of duplicate measurements. Two PBMC donors were used in this experiment.
The effect of blinatumumab (AMG 103) on T cell activation and the induction of VCAM-1 on endothelial cells was analyzed in co-cultures of HUVEC, isolated T cells and CD19-expressing NALM-6 target cells. VCAM-1 expression on CD31+ HUVEC was analyzed by flow cytometry.
(In general: In flow cytometry, cells or beads pass a laser one at a time.)

A further data set deals with TNF. Briefly: TNF levels in patients after blinatumomab in cycle 1. Type of data set: in vivo, human.

Consider `C[C@@H]1C[C@H]2[C@@H]3CCC4=CC(=O)C=C[C@]4(C)[C@@]3(F)[C@@H](O)C[C@]2(C)[C@@]1(O)C(=O)CO` [dexamethasone], for which, in data set [1], the “CRS events per patient” value worked out at 2.3 per patient and the “average duration of CRS events” value was “(b) average duration: 58 hrs”.
On to blinatumomab, for which the “VCAM-1 expression on CD31+ HUVEC” value in data set [2] is recorded as “up-regulated”. The “time to maximum TNF levels” value in the data set on TNF is not above 2 h.
